Experimental data from patent US20070122843A1, “Isoflavonoid analogs and their metal complexes as anti-cancer agents” (priority 2005, published 2007).
Read-outs that look alike come from different tables or passages of the source.

How the values were obtained:
[1] = test system: PC3; experiment: MTT cell viability / proliferation assay, PC3; type: cell-based, human
Experimental: (§1) More specifically, the tumor cell lines MCF-7, MDA-MB 231 and COLO 357 were maintained in Dulbecco's modifed Eagle's medium (DMEM) with phenol red. […] The cell lines were cultured in a humidified incubator in an atmosphere of 5% CO2 and were maintained in continuous exponential growth by twice a week passage. Adherent cells at a logarithmic phase were detached by addition of 2-3 ml of trypsin (Gibco), 0.02% EDTA mixture and incubation at 37° C. […] Cells were incubated for 24 h at 37° C. to resume exponential growth. The test compounds were dissolved in DMSO (final concentration 0.1%) and added to the cells 24 h after seeding at varying concentrations. Control wells containing the culture medium, were included in each experiment. Cell proliferation was evaluated after 72 h by means of MTT assay. The biological effects of these compounds were studied against the hormone independent breast (BT20) and prostate (PC3) cancers as well as K-ras positive (Colo357) and K-ras negative (B×PC3) pancreatic cancer cell lines.

[2] = test system: MDA-MB 231; experiment: MTT cell viability assay, MDA-MB 231; type: cell-based
Experimental: (§2) The compounds were tested in multiple panels of breast (MCF-7, T47D, BT20 and MDA-MB231), prostate (PC3), and pancreatic (BxPC3, COLO357) cancer cell lines, using the dye 3-[4,5 dimethylthiazol-2-yl]-2,5 diphenyltetrazolium bromide (MTT assay) according to a method described in Banerjee, et al., Cancer Research. 2002 62, 4945.
(§3) More specifically, the tumor cell lines MCF-7, MDA-MB 231 and COLO 357 were maintained in Dulbecco's modifed Eagle's medium (DMEM) with phenol red. Cell lines T47D, BT20, PC3 and BxPC3 were routinely cultured in RPMI medium, each medium being supplemented with Penicillin (50U/ml), Streptomycin (50 μg/ml) and 10% fetal calf serum (FCS) (Gibco, Myclone). The cell lines were cultured in a humidified incubator in an atmosphere of 5% CO2 and were maintained in continuous exponential growth by twice a week passage.
(§4) Adherent cells at a logarithmic phase were detached by addition of 2-3 ml of trypsin (Gibco), 0.02% EDTA mixture and incubation at 37° C. Cells were plated (100 μL per well) in 48 well flat bottom microtiter plates at densities of 2000 to 5000 per cm^2 (MCF-7, MDA-MB321, T47D, BT20, PC3, B×PC3, COLO357) cells per well. Cells were incubated for 24 h at 37° C. to resume exponential growth. The test compounds were dissolved in DMSO (final concentration 0.1%) and added to the cells 24 h after seeding at varying concentrations. Control wells containing the culture medium, were included in each experiment. Cell proliferation was evaluated after 72 h by means of MTT assay.

[3] = test system: COLO357; experiment: MTT cell viability / proliferation assay, COLO357; type: cell-based
Experimental: as §1

[4] = target: T1, Akt1/PKBα, active enzyme (Homo sapiens, UniProt P31749); experiment: Fluorescence polarization Akt kinase assay; type: biochemical
T1 construct: purchased Upstate Biotechnology 14-276
Experimental: The serine threonine Akt kinase reaction was carried out in 96 well black plates in a total volume of 100 μl using Ser/Thr kinase polarization based assay kit from Invitrogen Part # P3103. Briefly, the Akt kinase assay reaction was set up in a total volume of 40 μl in the presence of different concentrations of inhibitor. Stock solutions of test compounds were made in DMSO. From DMSO stocks, 4× solutions of test compounds were prepared in 1× assay dilution buffer; 10 μl of this drug solution was used in the assay. […] The plate was incubated at 30° C. for 30 minutes. Enzyme reaction was quenched with 10 μl of 50 mM EDTA for 5 minutes. Anti phosphor serine antibody was added 25 μl/well followed by 10 μl of fluorescent tracer. The total volume was made up to 100 μl by adding 15 μl of fluorescence polarization assay dilution buffer. Appropriate controls and blanks were prepared. The plate was incubated for 1 h at RT and was analyzed for polarization at 435 excitation and 535 emission wavelength on Tecan Ultra microplate reader. Polarization values were normalized to the control and were plotted against log concentration of test compounds using Graph Pad Prism software. Sigmoidal dose response curve analysis was used to calculate the IC50 of test compounds.

[5] = test system: BT20; experiment: MTT cell viability / proliferation assay, BT20; type: cell-based
Experimental: as §1

[6] = test system: breast, prostate and pancreatic cancer cell lines; experiment: MTT assay, statements over several cancer cell lines; type: cell-based
Experimental: as §2, §3, §4
The biological effects of these compounds were studied against the hormone independent breast (BT20) and prostate (PC3) cancers as well as K-ras positive (Colo357) and K-ras negative (B×PC3) pancreatic cancer cell lines.

[7] = test system: BxPC3; experiment: MTT cell viability / proliferation assay, BxPC3; type: cell-based
Experimental: as §1

[8] = test system: MCF-7; experiment: MTT cell viability assay, MCF-7; type: cell-based
Experimental: as §2, §3, §4

[9] = test system: T47D; experiment: MTT cell viability assay, T47D; type: cell-based; details: 72 h
Experimental: as §2, §3
as §4, with “The test compounds were dissolved in DMSO (final concentration 0.1%) and added to the cells 24 h after seeding at varying concentrations. Control wells containing the culture medium, were included in each experiment.” left out

[10] = test system: vascular endothelial growth factor (VEGF); experiment: VEGF ELISA in BxPC3 cells; type: cell-based, human; details: 10 μM, 20 μM, 72 h
Experimental: B×PC3 cells (0.1×10^6/well) were plated into 6-well plates and incubated in supplemented RPMI containing 10% FBS.

[11] = test system: PC3 cells; experiment: Western blot of Akt, p-Akt and PARP in PC3 cells; type: cell-based, human; details: 10 and 20 μM, 72 h
Experimental: Control cells were incubated in the medium with Na2CO3 using same time point. After incubation the cells were lysed with This-HCl (62.5 mm) and 2% SDS. Protein concentration was then measured using […] protein assay (Pierce Chemical Co., Rockford, Ill.). Cell extracts were subjected to 10% SDS-PAGE and electrophoretically transferred to nitrocellulose membrane. Membranes were then incubated with monoclonal anti-Akt (epitome: amino acids 345-480 of Akt1, 1:500; Ontogeny, 26. San Diego, Calif.), anti-phosphor-Akt Ser473 (1:1000; Cell Signaling, Beverly, Mass.), primary monoclonal anti-PARP antibody (1:5000; Biomol, Plymouth Meeting, Pa.) and anti-β-actin (1:5000; Sigma) antibodies, washed with TTBS, and incubated with secondary antibody conjugated with peroxidase. The signal was then detected using the chemiluminescent detection system (Pierce, Rockford, Ill.).

[12] = test system: COLO 357 cells; experiment: Orthotopic pancreatic tumor model using COLO 357 cells; type: in vivo
Experimental: The redox sensitive transcription factor NF-kB, is downstream of the Akt kinase protein and plays major role in the cell proliferation and metastasis and resistance in major cancers such as breast, prostate and pancreatic. […] Nuclear proteins were extracted from the tumor tissue as described previously (see, for example, Banerjee, et al, Cancer Research, Vo. 65, p. 9064 (2005)) and kept at −70° C. until use. Protein concentration was determined using the bicinchonic acid assay kit with BSA as the standard (Pierce Chemical Co., Rockford, Ill.). The incubation mixture included 25 mM DTT and 2.5% Tween 20 in a binding buffer. The DNA-protein complex formed was separated from free oligonucleotide on 8.0% native polyacralyamide gel using buffer containing 50 mM Tris, 200 mm glycine, pH 8.5, and 1 mM EDTA, and then visualized by Odyssey Infrared Imaging System using Odyssey Software Release 1.1.
Since the NF-κB pathway is regulated by Akt protein, the effects of the FPA-124 on NF-κB activity was studied in an in vivo experiment, specifically the well-established orthotopic pancreatic tumor model using COLO 357 cells.

[13] = test system: breast cancer cell line (T47D); experiment: Propidium iodide / Hoechst 33342 staining, apoptosis and cell viability; type: cell-based
Experimental: To provide further evidence of apoptosis, we carried out phase contrast microscopy using a mixture of propidium iodide (PI) and Hoechst dye 33342 to determine the integrity of cell membranes of cancer cells. The quantification of the apoptosis was carried out by cell count after staining with PI followed by visualization of treated cells by fluorescence analysis. […] After 5 minutes at 37° C. the cells were placed under a fluorescence microscope (Nikon Optiphot) with a filter block giving excitation at 380 nm and 480 nm.

[14] = test system: Colo357, BxPC3, BT20, and PC3 cells; experiment: Cell Death Detection ELISA apoptosis assay; type: cell-based; details: FPA-124, FPA-125, FPA-127 compared
Experimental: To determine whether the metal conjugates induce apoptosis in tumor cells, quantitative evaluation of apoptosis was carried out with a Cell Death Detection ELISA kit (Roche, Palo Alto, Calif.). Apoptosis was detected according to the protocol supplied by the manufacturer.
Since all copper compounds are redox active metal conjugates, we believe that redox triggered oxidative stress may be one of the underlying mechanisms for the observed apoptotic cell death in the present case. […] This observation is also in accordance with the favorable distortion factor calculated for the present copper compounds using EPR spectra, which factor helps stabilize cuprous and cupric species without dissociation of the conjugate.

[15] = 72 h, Table 1, read-out: MTT cell viability assay IC50 PC3
[16] = 72 h, Table 1, read-out: MTT cell viability assay IC50 COLO357
[17] = 72 h, Table 1, read-out: MTT cell viability assay IC50 BT20
[18] = FPA-102 25 mg/kg wt, i.v. on alternate days
[19] = 72 h, Table 1, read-out: MTT cell viability assay IC50 BxPC3

T1 sequence (P31749 whole entry): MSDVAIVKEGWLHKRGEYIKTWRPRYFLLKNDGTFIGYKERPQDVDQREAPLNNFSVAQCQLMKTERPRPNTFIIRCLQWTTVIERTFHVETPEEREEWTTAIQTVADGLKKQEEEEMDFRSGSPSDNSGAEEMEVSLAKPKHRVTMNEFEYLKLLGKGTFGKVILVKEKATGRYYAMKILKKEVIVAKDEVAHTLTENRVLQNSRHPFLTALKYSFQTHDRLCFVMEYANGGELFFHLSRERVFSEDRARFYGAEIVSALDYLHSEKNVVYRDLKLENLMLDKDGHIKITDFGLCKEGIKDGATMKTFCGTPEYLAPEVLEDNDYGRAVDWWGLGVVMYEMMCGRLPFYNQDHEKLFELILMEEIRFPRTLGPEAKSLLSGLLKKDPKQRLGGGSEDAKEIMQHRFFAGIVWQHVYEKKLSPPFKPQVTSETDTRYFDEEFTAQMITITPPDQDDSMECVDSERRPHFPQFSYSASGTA

CC(=O)C1CCC2C3CCC4=CC(=NNC(N)=S)CCC4(C)C3CCC12C (stereo not drawn) [FPA-101, 17-acetyl-10,13-dimethyl-1,2,6,7,8,9,11,12,13,14,15,16,17-tetradecahydrocyclopenta[a]phenantnren-3-thiosemicarbazone]
IC50 ([1]; Homo sapiens, PC-3, 72 h, Table 1, read-out: MTT cell viability assay IC50 PC3): 16 µM | IC50 ([2]; Homo sapiens, MDA-MB-231, 72 h): 25 µM | IC50 ([3]; Homo sapiens, COLO357, 72 h, Table 1, read-out: MTT cell viability assay IC50 COLO357): 13 µM | concentration inhibiting Akt kinase activity [4]: higher concentration | IC50 ([5]; Homo sapiens, BT-20, 72 h, Table 1, read-out: MTT cell viability assay IC50 BT20): 53 µM | antiproliferative action against the cell lines tested ([6]; cell lines of Table 1): moderate antiproliferative action | IC50 ([7]; Homo sapiens, BXPC-3, 72 h, Table 1, read-out: MTT cell viability assay IC50 BxPC3): 5 µM | IC50 ([8]; Homo sapiens, MCF7, 72 h): 20 µM

CC(=O)C1CCC2C3CCC4=CC(=NNC(N)=S)CCC4(C)C3CCC12C.[Cl][Cu][Cl] (stereo not drawn) [FPA-102]
IC50 [1, 15]: 9 µM | IC50 [9]: 5 µM | IC50 ([2]; 72 h): 11 µM | IC50 [3, 16]: 9 µM | VEGF levels [10]: decrease in the VEGF levels | IC50 [5, 17]: 13 µM | PARP degradation, Western blot [11]: induces poly (ADP-ribose) polymerase degradation | phosphor-Akt, Western blot [11]: down regulates | IC50 ([6]; MCF-7, MDA-MB 231, T47D, BT20, PC3, BxPC3, COLO357, read-out: IC50 values, range over the cell lines of Table 1): 5 to 13 µM | body weight of treated mice vs control (toxicity) [12, 18]: no significant change in the body weight | tumor burden [12, 18]: decrease tumor burden | NF-κB in tumor tissue (EMSA) ([12]; treatment for 10 days, once every alternate day): down-regulation of NF-κB | tumor histology ([12]; tumor from treated mice): marked necrosis and apoptosis | viable part of tumor mass, histology ([12]; tumor from treated mice): 20% | IC50 [7, 19]: 12.7 µM | apoptotic cells ([13]; IC50 concentration, 24-48 h treatment): ~95% | non-viable cells ([13]; IC50 concentration, 3 h incubation): 40% | cell death by uptake of propidium iodide ([13]; T47D, 10 μM, 72 hours): cells undergoing cell death by uptake of propidium iodide | IC50 ([8]; 72 h): 6 µM

CC(=O)C1CCC2C3CCC4=CC(=NNC(N)=S)CCC4(C)C3CCC12C.[Cl][Ni][Cl] (stereo not drawn) [FPA-103]
IC50 [1, 15]: > 100 µM | IC50 [3, 16]: 20 µM | concentration inhibiting Akt kinase activity [4]: higher concentration | IC50 [5, 17]: > 100 µM | IC50 ([8]; 72 h): 7.5 µM

CC(=O)C1CCC2C3CCC4=CC(=NNC(N)=S)CCC4(C)C3CCC12C.[Cl][Pt][Cl] (stereo not drawn) [FPA-104]
IC50 [1, 15]: 18 µM | IC50 ([2]; 72 h): 34 µM | IC50 [3, 16]: 7.3 µM | concentration inhibiting Akt kinase activity [4]: higher concentration | IC50 [5, 17]: 18 µM | IC50 [7, 19]: 5 µM | IC50 ([8]; 72 h): 22 µM

NC1=[S+][Cu-2]([Cl])([Cl])[N+](=Cc2coc3ccccc3c2=O)N1 [FPA-124]
IC50 ([1]; read-out: concentration for 50% cell kill, PC3 cells): 10 µM | apoptosis by ELISA, rank among metal conjugates [14]: most active compound | IC50 ([3]; Table 2, read-out: MTT Cell Proliferation Assay IC50 COLO357): 34 µM | IC50 ([4]; read-out: Akt kinase activity IC50): 100 nM | IC50 ([5]; read-out: concentration for 50% cell kill, BT20 cells): 7 µM | NF-κB activity in tumor tissue (EMSA) ([12]; FPA-124 study): significantly decreased | body weight of the treated animals (toxicity) ([12]; FPA-124 study): no change in the body weight | tumor load (pancreas weight) ([12]; FPA-124 study): decrease in the tumor load | IC50 ([7]; Table 2, read-out: MTT Cell Proliferation Assay IC50 BxPC3): 55 µM

O=c1c(-c2ccc(O)cc2)coc2cc(O)cc(O)c12 [Genistein, 4,5,7,-trihydroxyisoflavone, reference compound]
IC50 ([1]; Homo sapiens, PC-3, Table 2, read-out: MTT Cell Proliferation Assay IC50 PC3): 50 µM | IC50 ([3]; Homo sapiens, COLO357, Table 2, read-out: MTT Cell Proliferation Assay IC50 COLO357): 50 µM | IC50 ([4]; Table 2, read-out: Fluorescence Polarization Akt kinase Assay IC50): > 70000 nM | IC50 ([5]; Homo sapiens, BT-20, Table 2, read-out: MTT Cell Proliferation Assay IC50 BT20): 46 to 70 µM | IC50 ([6]; Pancreatic cancer cell, Colo357, BxPC3, BT20, PC3, read-out: IC50 values in these multiple cancer cell lines): > 40 µM | IC50 ([7]; Homo sapiens, BXPC-3, Table 2, read-out: MTT Cell Proliferation Assay IC50 BxPC3): 30 µM
